# Experimental data published in ChEMBL document CHEMBL6074632, “Next-generation EGFR tyrosine kinase inhibitors to overcome C797S mutation in non-small cell lung cancer (2019-2024)” (RSC Med Chem, 2024).
# Assays:
# [1] = biological target: Epidermal growth factor receptor (Homo sapiens, UniProt P00533, C797S/EX19DEL/T790M); assay: Inhibition of EGFR C797S/T790M/Del19 mutant (unknown origin)
# [2] = biological target: Epidermal growth factor receptor (Homo sapiens, UniProt P00533); assay: Inhibition of wild type EGFR (unknown origin)
# [3] = Inhibition of EGFR L858R/T790M double mutant (unknown origin); set-up: species or system Homo sapiens
# BaF3 [4] = assay: Antiproliferative activity against mouse BaF3 cells harboring EGFR C797S/T790M/del19 mutant assessed as growth inhibition incubated for 72 hrs by CellTiter-Glo assay; assay type: functional, cell-based; conditions: BaF3, 72 h
# BaF3 [5] = assay: Antiproliferative activity against mouse BaF3 cells harboring EGFR L858R/T790M/C797S mutant assessed as growth inhibition incubated for 72 hrs by CellTiter-Glo assay; assay type: functional, cell-based; conditions: BaF3, 72 h
# [6] = biological target: Epidermal growth factor receptor (Homo sapiens, UniProt P00533, C797S/L858R/T790M); assay: Inhibition of EGFR L858R/T790M/C797S mutant (unknown origin)
# [7] = Antiproliferative activity against human NCI-H1975 cells harboring EGFR L858R/T790M/C797S […] mutant assessed as inhibition of cell growth; assay type: functional, cell-based
# [8] = PROTAC activity at CRBN/EGFR L858R/T790M double mutant in human HCC827 cells assessed as induction of EGFR degradation; assay type: cell-based
# [9] = biological target: von Hippel-Lindau disease tumor suppressor/Epidermal growth factor receptor (Homo sapiens, UniProt P00533+P40337, L858R); assay: PROTAC activity at VHL/EGFR L858R mutant in human NCI-H3255 cells assessed as induction of EGFR degradation incubated for 24 hrs by immunoblotting analysis; assay type: cell-based
# [10] = Antiproliferative activity against human NCI-H1975 cells harboring EGFR L858R/T790M double mutant assessed as inhibition of cell growth incubated for 72 hrs by CellTiter-Glo assay; assay type: functional, cell-based; conditions: NCI-H1975, 72 h
# [11] = Oral bioavailability in rat; conditions: in vivo
# [12] = Antiproliferative activity against mouse BaF3 cells harboring EGFR L858R/T790M double mutant assessed as inhibition of cell growth
# NCI-H1975 [13] = assay: Antitumor activity against human NCI-H1975 cells xenografted in mouse model assessed as tumor growth inhibition at 40 mg/kg, po relative to control; assay type: functional; conditions: read-out: TGI
# [14] = Intrinsic clearance in human liver microsomes; assay type: ADME, Microsome
# [15] = Intrinsic clearance in human hepatocytes; assay type: ADME, cell-based, Hepatocyte
# [16] = Intrinsic clearance in rat liver microsomes; assay type: ADME, Microsome
# NCI-H1975 [17] = assay: Antitumor activity against human NCI-H1975 cells xenografted in mouse model assessed as tumor growth inhibition at 80 mg/kg, po relative to control; assay type: functional; conditions: read-out: TGI
# Epidermal growth factor receptor (Homo sapiens, UniProt P00533, C797S/EX19DEL/T790M), sequence (P00533 whole entry, looked up, stated change not applied): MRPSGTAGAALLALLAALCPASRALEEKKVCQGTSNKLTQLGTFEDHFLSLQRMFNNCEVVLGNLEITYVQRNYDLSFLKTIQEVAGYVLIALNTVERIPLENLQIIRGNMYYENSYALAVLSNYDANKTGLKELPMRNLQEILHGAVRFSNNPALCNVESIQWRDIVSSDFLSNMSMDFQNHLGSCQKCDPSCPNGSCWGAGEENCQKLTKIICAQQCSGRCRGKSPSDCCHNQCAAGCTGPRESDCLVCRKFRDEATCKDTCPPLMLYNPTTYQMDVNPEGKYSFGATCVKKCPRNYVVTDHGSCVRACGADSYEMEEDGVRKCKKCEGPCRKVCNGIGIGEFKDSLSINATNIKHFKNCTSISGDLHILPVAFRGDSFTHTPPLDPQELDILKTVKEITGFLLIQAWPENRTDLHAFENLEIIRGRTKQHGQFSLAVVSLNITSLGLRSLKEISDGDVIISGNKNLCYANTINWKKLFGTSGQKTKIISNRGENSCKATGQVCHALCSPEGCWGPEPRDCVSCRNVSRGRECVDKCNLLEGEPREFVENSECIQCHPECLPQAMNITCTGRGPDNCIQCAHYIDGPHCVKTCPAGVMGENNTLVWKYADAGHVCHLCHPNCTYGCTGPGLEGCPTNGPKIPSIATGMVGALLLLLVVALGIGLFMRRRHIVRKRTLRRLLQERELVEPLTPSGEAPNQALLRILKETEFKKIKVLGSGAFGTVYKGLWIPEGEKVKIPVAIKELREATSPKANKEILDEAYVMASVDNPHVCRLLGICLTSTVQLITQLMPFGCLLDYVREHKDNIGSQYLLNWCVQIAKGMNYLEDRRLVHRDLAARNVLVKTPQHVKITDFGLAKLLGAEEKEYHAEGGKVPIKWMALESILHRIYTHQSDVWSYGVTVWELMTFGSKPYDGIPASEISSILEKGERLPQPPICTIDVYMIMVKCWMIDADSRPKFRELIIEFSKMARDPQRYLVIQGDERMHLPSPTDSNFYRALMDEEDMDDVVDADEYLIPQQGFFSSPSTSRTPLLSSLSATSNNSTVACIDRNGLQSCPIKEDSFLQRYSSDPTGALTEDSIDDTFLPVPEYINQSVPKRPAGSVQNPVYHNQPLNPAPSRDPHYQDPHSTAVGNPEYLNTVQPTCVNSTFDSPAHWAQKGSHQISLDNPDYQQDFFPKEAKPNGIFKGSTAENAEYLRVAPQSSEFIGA
# Epidermal growth factor receptor (Homo sapiens, UniProt P00533), sequence (P00533 whole entry): as the sequence (P00533 whole entry, looked up, stated change not applied) above
# Epidermal growth factor receptor (Homo sapiens, UniProt P00533, C797S/L858R/T790M), sequence (P00533 25-1210 T790M/C797S/L858R limits assumed): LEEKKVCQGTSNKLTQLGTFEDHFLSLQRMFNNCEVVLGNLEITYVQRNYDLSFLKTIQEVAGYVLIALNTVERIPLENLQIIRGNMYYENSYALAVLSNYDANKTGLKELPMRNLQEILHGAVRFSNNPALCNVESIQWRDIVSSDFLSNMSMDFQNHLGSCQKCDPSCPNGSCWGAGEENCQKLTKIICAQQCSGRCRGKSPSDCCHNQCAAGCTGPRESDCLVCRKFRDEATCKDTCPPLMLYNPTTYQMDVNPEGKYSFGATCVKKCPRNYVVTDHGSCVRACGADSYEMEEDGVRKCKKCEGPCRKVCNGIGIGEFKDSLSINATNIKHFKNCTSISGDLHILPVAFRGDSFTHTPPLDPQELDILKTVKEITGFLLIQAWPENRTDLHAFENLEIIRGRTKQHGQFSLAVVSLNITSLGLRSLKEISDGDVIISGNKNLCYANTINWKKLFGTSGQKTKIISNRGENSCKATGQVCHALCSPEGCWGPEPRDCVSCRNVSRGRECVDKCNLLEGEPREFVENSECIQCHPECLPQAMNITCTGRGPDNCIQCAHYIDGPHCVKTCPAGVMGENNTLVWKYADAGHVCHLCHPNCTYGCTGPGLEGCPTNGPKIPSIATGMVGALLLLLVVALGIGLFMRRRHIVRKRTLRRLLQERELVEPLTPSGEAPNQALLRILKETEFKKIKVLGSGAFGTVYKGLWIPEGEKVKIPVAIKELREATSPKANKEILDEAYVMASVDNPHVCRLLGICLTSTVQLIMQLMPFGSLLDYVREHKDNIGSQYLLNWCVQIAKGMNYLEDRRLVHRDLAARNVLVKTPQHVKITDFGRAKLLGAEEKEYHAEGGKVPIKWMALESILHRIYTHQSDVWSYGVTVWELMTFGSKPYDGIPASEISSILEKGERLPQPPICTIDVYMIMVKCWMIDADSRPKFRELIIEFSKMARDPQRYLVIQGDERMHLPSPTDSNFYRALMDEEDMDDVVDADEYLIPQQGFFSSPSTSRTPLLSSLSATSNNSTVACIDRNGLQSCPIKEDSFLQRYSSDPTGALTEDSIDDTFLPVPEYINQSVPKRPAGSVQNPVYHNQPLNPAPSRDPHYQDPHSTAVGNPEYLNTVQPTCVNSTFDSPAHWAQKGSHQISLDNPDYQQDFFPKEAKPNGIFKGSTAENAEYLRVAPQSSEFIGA
# von Hippel-Lindau disease tumor suppressor/Epidermal growth factor receptor, sequence (P00533 25-1210 L858R limits assumed, stated change not applied): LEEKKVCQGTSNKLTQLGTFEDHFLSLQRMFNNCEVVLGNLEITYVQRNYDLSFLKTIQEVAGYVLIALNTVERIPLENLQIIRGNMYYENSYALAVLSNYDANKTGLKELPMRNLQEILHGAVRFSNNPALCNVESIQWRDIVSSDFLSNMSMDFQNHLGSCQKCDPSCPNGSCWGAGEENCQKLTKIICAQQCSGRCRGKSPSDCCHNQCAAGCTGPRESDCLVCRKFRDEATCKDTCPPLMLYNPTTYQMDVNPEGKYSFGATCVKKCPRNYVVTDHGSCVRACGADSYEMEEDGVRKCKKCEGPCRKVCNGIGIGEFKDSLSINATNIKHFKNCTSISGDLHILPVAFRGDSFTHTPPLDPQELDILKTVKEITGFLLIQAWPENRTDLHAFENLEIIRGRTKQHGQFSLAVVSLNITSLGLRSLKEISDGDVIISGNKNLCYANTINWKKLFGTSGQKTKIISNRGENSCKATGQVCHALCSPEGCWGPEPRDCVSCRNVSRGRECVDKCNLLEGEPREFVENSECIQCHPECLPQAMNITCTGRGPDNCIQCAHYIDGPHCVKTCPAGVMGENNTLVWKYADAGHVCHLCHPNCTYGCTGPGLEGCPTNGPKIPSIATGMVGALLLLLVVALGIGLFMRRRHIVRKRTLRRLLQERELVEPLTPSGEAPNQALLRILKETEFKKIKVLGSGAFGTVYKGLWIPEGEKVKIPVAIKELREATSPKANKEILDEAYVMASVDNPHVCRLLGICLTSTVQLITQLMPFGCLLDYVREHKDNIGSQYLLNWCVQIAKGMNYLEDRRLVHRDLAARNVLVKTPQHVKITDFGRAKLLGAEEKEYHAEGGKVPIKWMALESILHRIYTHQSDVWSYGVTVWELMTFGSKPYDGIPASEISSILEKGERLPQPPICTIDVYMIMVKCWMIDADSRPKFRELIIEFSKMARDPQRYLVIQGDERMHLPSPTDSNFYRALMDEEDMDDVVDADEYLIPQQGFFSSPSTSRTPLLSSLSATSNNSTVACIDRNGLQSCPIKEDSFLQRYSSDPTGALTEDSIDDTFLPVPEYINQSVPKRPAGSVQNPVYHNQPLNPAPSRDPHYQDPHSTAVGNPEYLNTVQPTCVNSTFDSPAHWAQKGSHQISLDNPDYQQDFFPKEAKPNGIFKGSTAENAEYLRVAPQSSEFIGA
# von Hippel-Lindau disease tumor suppressor/Epidermal growth factor receptor, sequence (P40337 whole entry, stated change not applied): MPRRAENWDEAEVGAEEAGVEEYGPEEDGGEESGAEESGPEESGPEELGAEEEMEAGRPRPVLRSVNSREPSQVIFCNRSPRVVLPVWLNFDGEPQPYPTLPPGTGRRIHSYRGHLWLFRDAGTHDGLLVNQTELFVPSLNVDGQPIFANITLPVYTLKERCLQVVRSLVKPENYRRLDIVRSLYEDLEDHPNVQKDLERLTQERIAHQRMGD
compound,measurement,setting,value
Oc1ccccc1-c1nc(NCc2c[nH]cn2)c2ccccc2n1,IC50,[1],4.84 nM
same,IC50,[2],> 50000 nM
O=C(Nc1nccs1)C(c1cc(F)ccc1O)N1Cc2ccccc2C1=O (centres undefined),IC50,[3],3 nM
Oc1ccccc1-c1nc(NCN2CCOCC2)c2ccccc2n1,IC50,[1],1730 nM
same,IC50,[2],37100 nM
CN1CCN(c2ccc(Nc3ncc(Cl)c(Nc4ccccc4P(C)(C)=O)n3)cc2Br)CC1,IC50,BaF3 [4],90 nM
same,IC50,BaF3 [5],120 nM
Oc1ccc(Br)cc1-c1nc(NCc2ncccn2)c2ccccc2n1,IC50,[6],440 nM
same,IC50,[7],12600 nM
Cn1cnc(Nc2nc(-c3ccccc3O)nc3ccccc23)c1,IC50,[1],3.38 nM
same,IC50,[2],> 50000 nM
N#Cc1ccc(O)c(-c2nc(NCc3ncccn3)c3ccccc3n2)c1,IC50,[7],1200 nM
COc1cc2ncnc(Nc3ccc(F)c(Cl)c3)c2cc1OCCCN1CCN(CCC(=O)NCCCCCCCCOc2cccc3c2C(=O)N(C2CCC(=O)NC2=O)C3=O)CC1 (centres undefined),DC50,[8],5 nM
COc1cc(N2CCN(CCCCCCCC(=O)N[C@H](C(=O)N3C[C@H](O)C[C@H]3C(=O)N[C@@H](C)c3ccc(-c4scnc4C)cc3)C(C)(C)C)CC2)ccc1Nc1ncc(Cl)c(Nc2ccccc2P(C)(C)=O)n1,DC50,[9],8 nM
CC(C)c1cnc(N2CC(CS(C)(=O)=O)C2)c2cnc(Nc3ccnc(N4CC[C@@H](O)[C@@](C)(F)C4)n3)cc12,IC50,[10],4.8 nM
same,bioavailability,[11],2%
CC(C)c1ccc(N2CC(CS(C)(=O)=O)C2)c2cnc(Nc3ccnc(N4CC[C@@H](O)[C@@](C)(F)C4)n3)cc12,IC50,[10],2.7 nM
same,bioavailability,[11],85%
O=C1CCC(N2C(=O)c3cccc(NCCOCCOCCOCCN4CCN(c5ccc(-c6ccc7c(c6)C(=O)N(C(C(=O)Nc6nccs6)c6ccccc6)C7)cn5)CC4)c3C2=O)C(=O)N1 (centres undefined),IC50,[12],96 nM
COc1cc2c(Nc3ccc(NC(=O)C(c4cc(F)ccc4F)N4Cc5ccccc5C4=O)cc3F)ncnc2cc1OCC1CCN(C)CC1 (centres undefined),IC50,[6],2.3 nM
CN1CCC(c2ccc(-c3ccc4c(c3)C(=O)N(C(C(=O)Nc3nccs3)c3cc(F)ccc3O)C4)cc2)CC1 (centres undefined),IC50,[3],0.063 nM
CO[C@@H]1CCN(c2nccc(Nc3cc4c(C(C)C)ccc(N5C[C@H](CS(C)(=O)=O)[C@H]5C)c4cn3)n2)C[C@@H]1F [TIGOZERTINIB],IC50,[10],1.1 nM
same,bioavailability,[11],48%
[2H]C([2H])([2H])c1cc(Nc2ncc(Br)c(Nc3ccccc3S(=O)(=O)C3CC3)n2)ccc1N1CCN(C([2H])([2H])[2H])CC1,IC50,BaF3 [4],12 nM
same,IC50,BaF3 [5],16 nM
same,IC50,[6],0.09 nM
same,inhibition in vivo at 40 mg/kg,NCI-H1975 [13],75.1%
CC(C)c1ccc(N2C[C@H](CS(C)(=O)=O)[C@H]2C)c2cnc(Nc3ccnc(N4CC[C@@H](O)[C@@](C)(F)C4)n3)cc12,CLint,[14],7.2 µL/min/mg
same,CLint,[15],41 µL/min/1e6 cells
same,CLint,[16],43 µL/min/mg
same,IC50,[10],1 nM
same,bioavailability,[11],50%
COc1cc(N2CCC(N3CCN(C)CC3)CC2)c(C)cc1Nc1ncc(Br)c(Nc2ccc3nccnc3c2P(C)(C)=O)n1,IC50,BaF3 [4],26.8 nM
Cc1cc(Nc2ncc(Br)c(Nc3ccccc3S(=O)(=O)C3CC3)n2)ccc1N1CCN(C)CC1,inhibition in vivo at 80 mg/kg,NCI-H1975 [17],73.2%
